In paper PMC11219871, “Epigenetic-based differentiation therapy for Acute Myeloid Leukemia” (Nature Communications, 2024):
Several values for one entry are separate records, joined by “and”; a condition that tells them apart may be missing. Equal values may be shown once. Read-outs that look alike come from different tables or passages of the source.

Experiments:
MONO-MAC-6 = test: Differentiation assay, CD11b / annexin-V flow cytometry; format: cell-based; conditions: MONOMAC-6 cell line; replicates 1-3 (Figure 2A)
Description: (§1) Next, the cells were washed twice with phosphate-buffered saline (PBS) and resuspended in 1X Binding Buffer at a concentration of 1 × 10^6 cells/mL. An 8-µL aliquot of APC-CD11b (BD Pharmingen, Franklin Lakes, NJ, USA) and 1 µL of FITC annexin-V (AV) (BD Pharmingen, Franklin Lakes, NJ, USA) antibodies were added and incubated for 15 min at room temperature in the dark. Finally, after the addition of 400 µL of 1X Binding Buffer to each tube, samples were collected on a BD FACSCanto flow cytometer (Becton Dickinson, San Jose, CA, USA) and analyzed using FlowJo software.

OCI-AML2 = test: as above; format: cell-based; conditions: OCI-AML-2 cell line; replicates 1-3 (Figure 2A)
Description: as §1

M-O7e = test: as above; format: cell-based; conditions: MO7e cell line; replicates 1-3 (Figure 2A);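 further: daily treatment at a GI50-based fraction of each compound's GI50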
Description: as §1

UT-7 = test: as above; format: cell-based; conditions: UT7 cell line; replicates 1-3 (Figure 2A)
Description: as §1

GF-D8 = test: as above; format: cell-based; conditions: GF-D8 cell line; replicates 1-3 (Figure 2A);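 further: daily treatment at a GI50-based fraction of each compound's GI50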
Description: as §1

NB-4 = test: as above; format: cell-based
Description: as §1

KASUMI-1 = test: as above; format: cell-based; conditions: KASUMI-1 cell line; replicates 1-3 (Figure 2A);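 further: daily treatment at a GI50-based fraction of each compound's GI50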
Description: as §1

OCI-AML3 = test: as above; format: cell-based; conditions: OCI-AML-3 cell line; replicates 1-3 (Figure 2A)
Description: as §1

ML-2 = test: Acetylome analysis (Acetyl-K enrichment, LC-MS/MS); format: cell-based, human; conditions: for Acetyl-K sites regulated, Number, Histone proteins / Acetyl-K sites regulated, Number, Non-histone proteins / Acetyl-K sites regulated, Percentages, Histone proteins / Acetyl-K sites regulated, Percentages, Non-histone proteins: Fig 4G; for Acetyl-K sites, Down-regulated / Acetyl-K sites, Up-regulated: Fig. 4C; for regulated Acetyl-K sites in Histone proteins / regulated Acetyl-K sites in Non-histone proteins: Fig. 4G; for percentage of Acetyl-K sites regulated: of 3618 quantified
Description: Cellular pellets were lysed for 15 min at 95 °C in 4% SDS, 100 mM Hepes/NaOH pH 8.0, containing 5 mM sodium butyrate and 5 mM Nicotinamide. After cooling down, lysates were incubated at 25 °C with 10 units of DNAse (Benzonase, Merk) and sonicated for 15 min in a Bioruptor for DNA shearing. Protein concentration was determined using microBCA, using BSA as standard. Samples were digested using on-bead protein aggregation capture (PAC) with ReSyn Biosciences MagReSyn® Hydoxyl microparticles (ratio Protein/Beads 1:5) in an automated King Fisher instrument (Thermo). Proteins were digested for 16 h at 37 C with LysC/Trypsin mix at a protein: enzyme ratio of 1:100 in 50 mM TEAB pH 8.0 (Trypsin Sequence grade, Sigma; LysC, Wako). The resulting peptides were speed-vac dried and dissolved in 100 µL of 200 mM HEPES pH 8.5.
Peptides (500 µg) were labeled with Thermo Scientific TMTpro 18plex™ Isobaric reagents for 1 h at 25 C. Reaction was quenched by adding 5% hydroxylamine for 15 min. Samples were pooled at a 1:1 ratio based on the total peptide amount, determined by comparing overall signal intensities on a regular LC-MS/MS run. The final mixture was desalted using a 500 mg Sep-Pak C18t cartridge (Waters) and dried prior to high pH reverse phase HPLC pre-fractionation.
Labeled peptides were fractionated offline through a high pH reverse phase chromatography using an Ultimate 3000 HPLC system equipped with a sample collector. Briefly, peptides were dissolved in 1200 µL of Buffer A (10 mM NH4OH) and loaded onto a XBridge BEH130 C18 column (3.5 µm, 250 mm length and 3.5 mm ID, Waters). Buffer B was composed of 10 mM NH4OH in 90% CH3CN. The following gradient was used at a flow rate of 500 µL/min: 0-50 min 0-25% B, 50-56 min 25-60% B, 56-57 min 60-90% B. One-minute fractions (500 µL) from […] were collected and neutralized with 10% formic acid. Based on the UV absorbance at 280 nm, 95% of the volume of 40 fractions was pooled in 5 fractions for Acetyl-Lysine enrichment. The 5% of these fractions was kept for proteome analysis. Pooled fractions were snap-frozen and lyophilized.
Lyophilized peptides (1.5 mg) from each pool were immuno-affinity purified with the PTMScan HS Acetyl-Lysine Motif (Ac−K) kit (Cell Signaling Technology). For each pool, three consecutive immuno-purifications (IPs) were performed using the manufacturer’s protocol in an automated King Fisher instrument (Thermo). Elution of purified peptides was performed in two consecutive steps of 50 μl of 0.15% TFA. Samples were desalted with C18 stage tips and eluates were vacuum dried and resuspended in 0.1% formic acid for subsequent analysis by LC−MS/MS.
LC-MS/MS was done by coupling an UltiMate 3000 RSLCnano LC system to an Orbitrap Exploris 480 mass spectrometer (Thermo Fisher Scientific). Samples were loaded into a trap column (Acclaim™ PepMap™ 100 C18 LC Columns 5 µm, 20 mm length) for 3 min at a flow rate of 10 µL/min in 0.1% FA. Peptides were then transferred to an EASY-Spray PepMap RSLC C18 column (Thermo) (2 µm, 75 µm x 50 cm) operated at 45 °C and separated using a 90 min effective gradient (buffer A: 0.1% FA; buffer B: 100% ACN, 0.1% FA) at a flow rate of 250 nL/min. The gradient used was, from 4% to 6% of buffer B the first 2 min, from 6% to 33% B the next 58 min, plus 10 additional minutes at 98% B.
The mass spectrometer was operated in a data-dependent mode, with an automatic switch between MS and MS/MS scans using a top 15 method. (Intensity threshold ≥ 1e4, dynamic exclusion of 20 sec and excluding charges unassigned, +1 and ≥ +7). MS spectra were acquired from 350 to 1500 m/z with a resolution of 60,000 FMHW (200 m/z). Ion peptides were isolated using a 0.7 Th window and fragmented using higher-energy collisional dissociation (HCD) with a normalized collision energy NCE of 36. MS/MS spectra were acquired with a fixed first mass of 120 m/z and a resolution of 45,000 FMHW (200 m/z). […]

[1] = ML-2, first (superseded) acetylome experiment, peer review file
[2] = distribution of acetylated sites in the acetylated proteins (Fig 4D)

Row | Structure (SMILES) | Acetyl-K sites regulated, Number, Histone proteins (ML-2) | Acetyl-K sites regulated, Number, Non-histone proteins (ML-2) | Acetyl-K sites regulated, Percentages, Histone proteins (ML-2) | Acetyl-K sites regulated, Percentages, Non-histone proteins (ML-2) | Acetyl-K sites: Down-regulated, % (ML-2; ML-2 (Fig 4C)) | Acetyl-K sites: Down-regulated, Number (ML-2; ML-2 (Fig 4C)) | Acetyl-K sites: Non-regulated, % (ML-2; ML-2 (Fig 4C)) | Acetyl-K sites: Non-regulated, Number (ML-2; ML-2 (Fig 4C)) | Acetyl-K sites: Quantified (total number) (ML-2; ML-2 (Fig 4C)) | Acetyl-K sites: Regulated, % (ML-2; ML-2 (Fig 4C)) | Acetyl-K sites: Regulated, Number (ML-2; ML-2 (Fig 4C)) | Acetyl-K sites: Up-regulated, Number (ML-2; ML-2 (Fig 4C)) | fraction of regulated acetylation sites upregulated (ML-2; ML-2, 25% GI50, 12 h) | Acetyl-K sites, Down-regulated (ML-2; ML-2, 25% GI50, 12 h) | Acetyl-K sites, Up-regulated (ML-2; ML-2, 25% GI50, 12 h) | regulated Acetyl-K sites in Histone proteins (ML-2; ML-2, 25% GI50, 12 h) | regulated Acetyl-K sites in Non-histone proteins (ML-2; ML-2, 25% GI50, 12 h) | percentage of Acetyl-K sites regulated (ML-2; ML-2, 25% GI50, 12 h) | acetyl K-sites regulated specifically by the compound (ML-2; [1]) | fraction of regulated acetylation sites upregulated (ML-2; [1]) | also measured
1 | CC1=C(/C=C/C(C)=C/C=C/C(C)=C/C(=O)O)C(C)(C)CCC1 [ATRA, all-trans retinoic acid, reference compound] | – | – | – | – | – | – | – | – | – | – | – | – | – | – | – | – | – | – | – | – | CD11b (%) (MONO-MAC-6): 10.8% and 15.4% and 11.3%; CD11b (%) (OCI-AML2): 15.2% and 20.2% and 14.1%; CD11b (%) (M-O7e): 0.25% and 2.3% and 4.5%; CD11b (%) (UT-7): 5.9% and 6.4% and 10.05%; CD11b (%) (GF-D8): 5.2% and 12.5% and 12.9%; CD11b (%) (NB-4; NB4 cell line, replicates 1-3 (Figure 2A)): 89.2% and 76.4% and 74.85%; differentiation (CD11b) (NB-4; NB-4, daily 25% GI50, 48 h): induced differentiation; CD11b (%) (KASUMI-1): 1.2% and 9.5% and 4.6%; CD11b (%) (OCI-AML3): 19.3% and 12.4% and 11.8%
2 | Cc1[nH]c2ccccc2c1CCNCc1ccc(/C=C/C(=O)NO)cc1 [Panobinostat, reference compound] | 52 | 587 | 8.1 | 91.9 | 8.9% | 322 | 82.3% | 2979 | 3618 | 17.7% | 639 | 317 | 49.6% | 322 | 317 | 52 | 587 | 17.7% | 232 | 53.2% | Number of proteins with >5 Acetyl-K sites per protein (ML-2): 11; Acetyl-K sites: Up-regulated, % (ML-2; ML-2 (Fig 4C)): 8.8%; Number of proteins with 1 Acetyl-K site per protein (ML-2; [2]): 354; Number of proteins with 2 Acetyl-K sites per protein (ML-2; [2]): 56; Number of proteins with 3 Acetyl-K sites per protein (ML-2; [2]): 25; Number of proteins with 4 Acetyl-K sites per protein (ML-2; [2]): 6
3 | O=C(CCCCCCC(=O)Nc1ccccc1)NO [Vorinostat, reference compound] | 40 | 469 | 7.9 | 92.1 | 7.7% | 232 | 85.9% | 3109 | 3618 | 14.1% | 509 | 277 | 54.4% | 232 | 277 | 40 | 469 | 14.1% | 121 | 37.3% | Number of proteins with 1 Acetyl-K site per protein (ML-2; [2]): 298; Number of proteins with 2 Acetyl-K sites per protein (ML-2; [2]): 54; Number of proteins with 3 Acetyl-K sites per protein (ML-2; [2]): 16; Number of proteins with 4 Acetyl-K sites per protein (ML-2; [2]): 5; Number of proteins with >5 Acetyl-K sites per protein (ML-2; [2]): 6
